Assay results from patent publication US9149038B2, “4-amino-6-(heterocyclic)picolinates and 6-amino-2-(heterocyclic)pyrimidine-4-carboxylates and their use as herbicides” (Dow AgroSciences LLC, priority 2013, dated 2015).
Like-named read-outs stand apart in the source and are kept apart here.

What was measured:
[1] = tested on: Key Broadleaf Weed and Crop Species; assay: Post-Emergent Test II: postemergent herbicidal activity, visual rating after 14 d (Table 7); type: in vivo; conditions: post-emergence, 336 h; for pest or weed control at 35 g/ha: 35 g ai/ha; for pest or weed control at 70 g/ha: 70 g ai/ha; for pest or weed control at 140 g/ha: 140 g ai/ha
How it was run: (§1)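 Greenhouse plants at first or second true leaf stage sprayed with compound in acetone/DMSO-based spray solution with crop oil concentrate and Triton X-155 at 187 L/ha, tested at highest rate and ½× to 1/16× dilutions; solvent blank controls. Injury rated visually 0–100% versus untreated plants after 14 d.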

[2] = tested on: Key Grass and Sedge Weeds as well as Grass Crops; assay: Post-Emergent Test II: postemergent herbicidal activity, visual rating after 14 d (Table 8); type: in vivo; conditions: post-emergence, 336 h; for pest or weed control at 35 g/ha: 35 g ai/ha; for pest or weed control at 70 g/ha: 70 g ai/ha; for pest or weed control at 140 g/ha: 140 g ai/ha
How it was run: as §1

[3] = ABUTH: velvetleaf (Abutilon theophrasti), read-out: Visual Growth Reduction (%) 14 Days After Application ABUTH
[4] = AMARE: redroot pigweed (Amaranthus retroflexus), read-out: Visual Growth Reduction (%) 14 Days After Application AMARE
[5] = BRSNN: oilseed rape, canola (Brassica napus), read-out: Visual Growth Reduction (%) 14 Days After Application BRSNN
[6] = CHEAL: lambsquarters (Chenopodium album), read-out: Visual Growth Reduction (%) 14 Days After Application CHEAL
[7] = EPHHL: wild poinsettia (Euphorbia heterophylla), read-out: Visual Growth Reduction (%) 14 Days After Application EPHHL
[8] = HELAN: sunflower (Helianthus annuus), read-out: Visual Growth Reduction (%) 14 Days After Application HELAN
[9] = barnyardgrass (Echinochloa crus-galli), read-out: Visual Growth Reduction (%) 14 Days After Application, ECHCG
[10] = giant foxtail (Setaria faberi), read-out: Visual Growth Reduction (%) 14 Days After Application, SETFA
[11] = maize, corn (Zea mays), read-out: Visual Growth Reduction (%) 14 Days After Application, ZEAMX
[12] = rice (Oryza sativa), read-out: Visual Growth Reduction (%) 14 Days After Application, ORYSA
[13] = wheat, spring (Triticum aestivum), read-out: Visual Growth Reduction (%) 14 Days After Application, TRZAS
[14] = yellow nutsedge (Cyperus esculentus), read-out: Visual Growth Reduction (%) 14 Days After Application, CYPES

## COC(=O)c1nc(-c2cccc3c2OC(F)(F)O3)nc(N)c1OC [Compound 99]
[1]; [3]
  pest or weed control at 35 g/ha: 0 to 29%
  pest or weed control at 70 g/ha: 0 to 29%
  pest or weed control at 140 g/ha: 0 to 29%
[1]; [4]
  pest or weed control at 35 g/ha: 0 to 29%
  pest or weed control at 70 g/ha: 0 to 29%
  pest or weed control at 140 g/ha: 0 to 29%
[1]; [5]
  pest or weed control at 35 g/ha: 0 to 29%
  pest or weed control at 70 g/ha: 0 to 29%
  pest or weed control at 140 g/ha: 0 to 29%
[1]; [6]
  pest or weed control at 35 g/ha: 60 to 74%
  pest or weed control at 70 g/ha: 75 to 84%
  pest or weed control at 140 g/ha: 85 to 94%
[1]; [7]
  pest or weed control at 35 g/ha: 0 to 29%
  pest or weed control at 70 g/ha: 0 to 29%
  pest or weed control at 140 g/ha: 0 to 29%
[1]; [8]
  pest or weed control at 35 g/ha: 75 to 84%
  pest or weed control at 70 g/ha: 85 to 94%
  pest or weed control at 140 g/ha: 85 to 94%
[2]; [9]
  pest or weed control at 35 g/ha: 0 to 29%
  pest or weed control at 70 g/ha: 0 to 29%
  pest or weed control at 140 g/ha: 0 to 29%
[2]; [10]
  pest or weed control at 35 g/ha: 0 to 29%
  pest or weed control at 70 g/ha: 0 to 29%
  pest or weed control at 140 g/ha: 0 to 29%
[2]; [11]
  pest or weed control at 35 g/ha: 0 to 29%
  pest or weed control at 70 g/ha: 0 to 29%
  pest or weed control at 140 g/ha: 0 to 29%
[2]; [12]
  pest or weed control at 35 g/ha: 0 to 29%
  pest or weed control at 70 g/ha: 0 to 29%
  pest or weed control at 140 g/ha: 0 to 29%
[2]; [13]
  pest or weed control at 35 g/ha: 0 to 29%
  pest or weed control at 70 g/ha: 0 to 29%
  pest or weed control at 140 g/ha: 0 to 29%
[2]; [14]
  pest or weed control at 35 g/ha: 0 to 29%
  pest or weed control at 70 g/ha: 0 to 29%
  pest or weed control at 140 g/ha: 0 to 29%
